The results in this text go back to ChEMBL document CHEMBL4028801, “A multifactorial approach to hepatobiliary transporter assessment enables improved therapeutic compound development” (Toxicol Sci, 2013).

The target in one assay is Bile salt export pump (Homo sapiens, UniProt O95342). The assay is described as follows: Inhibition of human BSEP overexpressed in Sf9 cell membrane vesicles assessed as uptake of [3H]-taurocholate in presence of ATP measured after 15 to 20 mins by membrane vesicle transport assay. Format: ADME, cell-based.
Assay [1] deals with T1, ATP-binding cassette sub-family C member 4 (Homo sapiens, UniProt O15439).
T1 sequence (O15439 whole entry): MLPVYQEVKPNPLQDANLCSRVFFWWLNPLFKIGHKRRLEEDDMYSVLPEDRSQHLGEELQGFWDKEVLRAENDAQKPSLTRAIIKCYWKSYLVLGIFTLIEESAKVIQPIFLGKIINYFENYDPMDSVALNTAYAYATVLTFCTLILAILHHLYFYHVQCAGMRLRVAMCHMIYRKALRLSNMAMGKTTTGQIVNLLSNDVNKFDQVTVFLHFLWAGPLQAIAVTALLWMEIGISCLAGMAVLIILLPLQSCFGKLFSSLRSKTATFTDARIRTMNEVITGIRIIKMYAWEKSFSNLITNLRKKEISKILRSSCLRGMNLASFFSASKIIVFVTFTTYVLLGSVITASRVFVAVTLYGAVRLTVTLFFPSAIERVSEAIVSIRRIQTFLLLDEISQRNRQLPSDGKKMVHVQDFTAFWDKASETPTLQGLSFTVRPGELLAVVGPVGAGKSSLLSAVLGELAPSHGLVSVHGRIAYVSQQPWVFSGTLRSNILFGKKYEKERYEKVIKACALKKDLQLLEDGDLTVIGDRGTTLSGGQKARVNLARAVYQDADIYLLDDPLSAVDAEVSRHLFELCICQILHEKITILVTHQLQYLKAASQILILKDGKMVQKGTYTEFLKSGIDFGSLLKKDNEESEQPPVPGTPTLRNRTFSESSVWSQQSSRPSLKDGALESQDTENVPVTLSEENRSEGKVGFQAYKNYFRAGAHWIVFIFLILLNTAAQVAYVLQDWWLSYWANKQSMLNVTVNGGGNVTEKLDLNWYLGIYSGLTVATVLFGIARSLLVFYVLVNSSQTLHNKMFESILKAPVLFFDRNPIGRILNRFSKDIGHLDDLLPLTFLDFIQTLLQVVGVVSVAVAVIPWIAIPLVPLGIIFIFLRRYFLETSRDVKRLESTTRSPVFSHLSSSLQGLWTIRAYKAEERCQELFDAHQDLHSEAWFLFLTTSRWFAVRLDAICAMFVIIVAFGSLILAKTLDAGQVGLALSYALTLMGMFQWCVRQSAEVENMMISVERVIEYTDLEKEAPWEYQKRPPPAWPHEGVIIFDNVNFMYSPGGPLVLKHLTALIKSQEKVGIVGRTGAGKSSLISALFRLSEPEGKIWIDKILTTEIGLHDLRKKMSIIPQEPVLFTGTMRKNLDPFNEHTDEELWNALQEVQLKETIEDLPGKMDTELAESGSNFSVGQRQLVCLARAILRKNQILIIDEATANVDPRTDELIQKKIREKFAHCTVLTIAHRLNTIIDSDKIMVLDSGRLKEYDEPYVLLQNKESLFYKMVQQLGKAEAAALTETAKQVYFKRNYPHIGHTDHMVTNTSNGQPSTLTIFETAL
The assay is described as follows: Inhibition of human MRP4 overexpressed in Sf9 cell membrane vesicles assessed as uptake of [3H]-estradiol-17beta-D-glucuronide in presence of ATP and GSH measured after 20 mins by membrane vesicle transport assay. Format: ADME, cell-based.

The target of assay [2] is ATP-binding cassette sub-family C member 2 (Homo sapiens, UniProt Q92887). The assay is described as follows: Inhibition of human MRP2 overexpressed in Sf9 cell membrane vesicles assessed as uptake of [3H]-estradiol-17beta-D-glucuronide in presence of ATP and GSH measured after 20 mins by membrane vesicle transport assay.
The target in assay [3] is ATP-binding cassette sub-family C member 3 (Homo sapiens, UniProt O15438). The assay is described as follows: Inhibition of human MRP3 overexpressed in Sf9 insect cell membrane vesicles assessed as uptake of [3H]-estradiol-17beta-D-glucuronide in presence of ATP and GSH measured after 10 mins by membrane vesicle transport assay. In kind it is ADME, cell-based.

Counter-ions that a name gives are not always drawn. Bounds are passed on as bounds.

Sequence of ATP-binding cassette sub-family C member 3 (O15438 whole entry): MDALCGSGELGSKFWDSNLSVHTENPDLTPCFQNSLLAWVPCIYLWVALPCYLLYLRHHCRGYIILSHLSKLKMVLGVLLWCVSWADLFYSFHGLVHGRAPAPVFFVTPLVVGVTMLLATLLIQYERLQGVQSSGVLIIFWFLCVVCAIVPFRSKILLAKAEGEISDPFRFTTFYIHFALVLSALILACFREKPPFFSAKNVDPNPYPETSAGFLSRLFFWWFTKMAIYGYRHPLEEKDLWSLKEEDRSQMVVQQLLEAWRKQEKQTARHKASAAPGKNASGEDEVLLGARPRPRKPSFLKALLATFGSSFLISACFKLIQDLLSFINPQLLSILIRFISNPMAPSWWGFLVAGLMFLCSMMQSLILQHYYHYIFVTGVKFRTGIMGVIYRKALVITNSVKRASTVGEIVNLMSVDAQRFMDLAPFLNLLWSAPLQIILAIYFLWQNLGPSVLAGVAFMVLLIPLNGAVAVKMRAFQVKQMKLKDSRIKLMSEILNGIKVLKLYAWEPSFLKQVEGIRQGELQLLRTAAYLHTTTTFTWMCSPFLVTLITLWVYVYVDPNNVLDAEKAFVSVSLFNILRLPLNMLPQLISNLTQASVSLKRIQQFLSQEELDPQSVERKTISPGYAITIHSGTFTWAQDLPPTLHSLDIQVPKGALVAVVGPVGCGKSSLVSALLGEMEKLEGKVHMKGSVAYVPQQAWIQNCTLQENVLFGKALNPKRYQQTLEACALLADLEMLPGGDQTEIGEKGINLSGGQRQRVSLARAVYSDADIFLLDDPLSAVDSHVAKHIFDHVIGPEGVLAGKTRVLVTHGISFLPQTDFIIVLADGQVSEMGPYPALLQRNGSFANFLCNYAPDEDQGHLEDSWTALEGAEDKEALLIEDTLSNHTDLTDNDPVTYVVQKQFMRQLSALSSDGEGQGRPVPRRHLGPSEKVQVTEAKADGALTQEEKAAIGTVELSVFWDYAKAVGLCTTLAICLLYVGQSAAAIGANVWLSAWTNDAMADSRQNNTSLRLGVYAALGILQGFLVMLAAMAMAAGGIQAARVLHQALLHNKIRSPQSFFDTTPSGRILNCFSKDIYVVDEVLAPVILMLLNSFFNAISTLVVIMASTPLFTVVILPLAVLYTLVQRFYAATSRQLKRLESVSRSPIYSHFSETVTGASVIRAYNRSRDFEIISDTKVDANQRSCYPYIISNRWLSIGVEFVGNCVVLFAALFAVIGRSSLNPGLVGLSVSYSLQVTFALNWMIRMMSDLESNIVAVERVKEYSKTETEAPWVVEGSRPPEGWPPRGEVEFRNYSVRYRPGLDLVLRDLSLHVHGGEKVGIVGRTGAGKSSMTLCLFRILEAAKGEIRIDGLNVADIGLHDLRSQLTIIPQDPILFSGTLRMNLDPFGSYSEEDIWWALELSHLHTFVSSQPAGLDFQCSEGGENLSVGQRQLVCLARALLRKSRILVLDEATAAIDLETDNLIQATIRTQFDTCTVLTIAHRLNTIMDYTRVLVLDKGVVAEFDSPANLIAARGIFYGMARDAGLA
Sequence of Bile salt export pump (O95342 whole entry): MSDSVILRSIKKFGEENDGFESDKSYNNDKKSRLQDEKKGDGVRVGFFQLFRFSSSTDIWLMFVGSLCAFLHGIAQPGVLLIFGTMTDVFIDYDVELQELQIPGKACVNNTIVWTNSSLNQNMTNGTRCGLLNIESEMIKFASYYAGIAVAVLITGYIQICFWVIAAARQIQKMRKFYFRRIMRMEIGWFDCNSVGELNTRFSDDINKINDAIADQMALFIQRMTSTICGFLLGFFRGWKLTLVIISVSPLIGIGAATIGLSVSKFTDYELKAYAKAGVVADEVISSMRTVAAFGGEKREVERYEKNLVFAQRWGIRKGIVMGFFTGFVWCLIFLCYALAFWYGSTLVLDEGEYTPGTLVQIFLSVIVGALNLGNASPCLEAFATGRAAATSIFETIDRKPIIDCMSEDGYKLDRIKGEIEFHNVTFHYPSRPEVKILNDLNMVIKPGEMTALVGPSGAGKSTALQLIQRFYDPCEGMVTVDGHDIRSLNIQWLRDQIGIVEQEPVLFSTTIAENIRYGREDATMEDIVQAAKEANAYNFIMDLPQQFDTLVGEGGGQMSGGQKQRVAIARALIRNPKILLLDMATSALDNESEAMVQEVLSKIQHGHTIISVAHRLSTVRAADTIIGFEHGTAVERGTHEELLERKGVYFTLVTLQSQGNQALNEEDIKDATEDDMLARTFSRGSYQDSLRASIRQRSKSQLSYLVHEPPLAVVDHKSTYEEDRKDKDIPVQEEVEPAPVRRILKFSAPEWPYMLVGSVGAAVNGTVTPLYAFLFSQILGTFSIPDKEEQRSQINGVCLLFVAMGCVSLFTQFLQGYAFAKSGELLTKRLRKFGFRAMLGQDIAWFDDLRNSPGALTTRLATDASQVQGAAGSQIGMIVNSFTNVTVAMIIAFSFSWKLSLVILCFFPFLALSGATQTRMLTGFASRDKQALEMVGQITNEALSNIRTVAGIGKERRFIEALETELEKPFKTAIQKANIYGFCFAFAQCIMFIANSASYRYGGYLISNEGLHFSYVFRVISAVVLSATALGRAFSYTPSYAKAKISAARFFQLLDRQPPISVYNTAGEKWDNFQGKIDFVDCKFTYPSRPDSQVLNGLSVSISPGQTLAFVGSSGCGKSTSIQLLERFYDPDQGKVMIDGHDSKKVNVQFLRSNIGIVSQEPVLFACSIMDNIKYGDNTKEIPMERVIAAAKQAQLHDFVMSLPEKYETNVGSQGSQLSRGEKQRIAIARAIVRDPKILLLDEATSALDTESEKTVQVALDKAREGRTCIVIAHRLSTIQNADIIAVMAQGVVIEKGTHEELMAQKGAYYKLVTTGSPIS
Sequence of ATP-binding cassette sub-family C member 2 (Q92887 whole entry): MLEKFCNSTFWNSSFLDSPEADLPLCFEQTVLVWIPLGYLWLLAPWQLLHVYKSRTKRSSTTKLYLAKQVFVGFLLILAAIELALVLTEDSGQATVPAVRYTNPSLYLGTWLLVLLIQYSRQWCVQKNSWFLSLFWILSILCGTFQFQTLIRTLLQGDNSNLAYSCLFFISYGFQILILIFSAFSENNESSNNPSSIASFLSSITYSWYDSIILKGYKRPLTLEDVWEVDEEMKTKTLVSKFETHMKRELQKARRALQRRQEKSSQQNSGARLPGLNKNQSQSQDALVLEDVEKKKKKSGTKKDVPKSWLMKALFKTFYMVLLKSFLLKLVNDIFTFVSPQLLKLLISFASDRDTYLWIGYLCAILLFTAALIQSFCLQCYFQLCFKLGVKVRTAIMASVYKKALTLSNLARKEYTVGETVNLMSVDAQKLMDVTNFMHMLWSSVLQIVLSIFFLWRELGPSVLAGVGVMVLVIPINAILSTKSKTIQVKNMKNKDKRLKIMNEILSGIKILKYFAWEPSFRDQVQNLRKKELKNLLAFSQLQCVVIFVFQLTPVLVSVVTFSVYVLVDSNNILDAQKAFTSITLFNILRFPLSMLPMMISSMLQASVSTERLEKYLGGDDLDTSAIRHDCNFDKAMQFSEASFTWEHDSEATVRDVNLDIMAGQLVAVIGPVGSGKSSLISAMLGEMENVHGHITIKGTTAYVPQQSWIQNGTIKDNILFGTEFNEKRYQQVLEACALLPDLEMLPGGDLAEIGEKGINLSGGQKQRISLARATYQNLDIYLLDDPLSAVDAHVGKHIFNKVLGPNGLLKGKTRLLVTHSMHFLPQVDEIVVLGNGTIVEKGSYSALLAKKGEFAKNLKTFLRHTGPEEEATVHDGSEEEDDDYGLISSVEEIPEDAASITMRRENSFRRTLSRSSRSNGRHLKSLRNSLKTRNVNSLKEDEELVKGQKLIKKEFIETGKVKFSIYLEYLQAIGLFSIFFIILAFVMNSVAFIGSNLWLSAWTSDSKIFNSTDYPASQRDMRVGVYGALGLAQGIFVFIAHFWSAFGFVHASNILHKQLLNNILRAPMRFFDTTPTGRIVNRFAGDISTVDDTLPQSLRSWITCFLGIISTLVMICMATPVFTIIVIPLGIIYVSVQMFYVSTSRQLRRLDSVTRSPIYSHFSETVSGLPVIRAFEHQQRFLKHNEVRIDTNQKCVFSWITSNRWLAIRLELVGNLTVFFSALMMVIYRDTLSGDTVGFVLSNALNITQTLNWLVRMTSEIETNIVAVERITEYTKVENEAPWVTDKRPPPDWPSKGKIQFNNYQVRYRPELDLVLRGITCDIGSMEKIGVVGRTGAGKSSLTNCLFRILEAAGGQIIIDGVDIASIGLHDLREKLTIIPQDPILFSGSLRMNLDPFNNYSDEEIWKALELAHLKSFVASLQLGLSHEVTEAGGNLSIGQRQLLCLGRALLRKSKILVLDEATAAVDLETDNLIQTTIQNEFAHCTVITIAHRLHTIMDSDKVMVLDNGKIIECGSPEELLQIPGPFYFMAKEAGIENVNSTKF

`CS(=O)(=O)c1ccc(C2=C(c3ccccc3)C(=O)OC2)cc1` [ROFECOXIB]: the IC50 (at Bile salt export pump; in assay [1]; in assay [2]; in assay [3]) was greater than 133 µM in each case.

Regarding `CN(C(=O)c1c(O)c2ccccc2n(C)c1=O)c1ccccc1` [ROQUINIMEX], the IC50 (at Bile salt export pump; in assay [1]; in assay [2]; in assay [3]) was greater than 133 µM each time.

As to `CC(C)c1nc(N(C)S(C)(=O)=O)nc(-c2ccc(F)cc2)c1/C=C/[C@@H](O)C[C@@H](O)CC(=O)O` [ROSUVASTATIN CALCIUM], the IC50 was greater than 133 µM at Bile salt export pump, 26.8 µM in assay [1], greater than 133 µM in assay [2] and 58.3 µM in assay [3].

As for `C=C(C)[C@H]1Cc2c(ccc3c2O[C@@H]2COc4cc(OC)c(OC)cc4[C@@H]2C3=O)O1` [ROTENONE], the IC50 on Bile salt export pump is 8 µM; in assay [1], greater than 133 µM; in assay [2] it was greater than 133 µM; in assay [3], greater than 133 µM.

Turning to `CC[C@H]1OC(=O)[C@H](C)[C@@H](O[C@H]2C[C@@](C)(OC)[C@@H](O)[C@H](C)O2)[C@H](C)[C@@H](O[C@@H]2O[C@H](C)C[C@H](N(C)C)[C@H]2O)[C@](C)(O)C[C@@H](C)/C(=N\OCOCCOC)[C@H](C)[C@@H](O)[C@]1(C)O` [ROXITHROMYCIN], the 50% inhibitory concentration (IC50) (on Bile salt export pump; in assay [1]; in assay [2]; in assay [3]) was greater than 133 µM in each case.

As to `CC[C@@]1(O)C(=O)OCc2c1cc1n(c2=O)Cc2cc3c([N+](=O)[O-])cccc3nc2-1` [RUBITECAN], the IC50 at Bile salt export pump was greater than 133 µM; in assay [1] it was 5.1 µM; in assay [2] it was 60.5 µM; in assay [3], 10.2 µM.

`OCc1cc(C(O)CNCCCCCCOCCCCc2ccccc2)ccc1O` (centres undefined) [SALMETEROL XINAFOATE]: the IC50 (on Bile salt export pump; in assay [1]; in assay [2]; in assay [3]) was greater than 133 µM throughout.

With `C#CCN(C)[C@H](C)Cc1ccccc1` [SELEGILINE HYDROCHLORIDE], the half-maximal inhibitory concentration (IC50) (at Bile salt export pump; in assay [1]; in assay [2]; in assay [3]) was greater than 133 µM throughout.

In the case of `O=C1NCCN1CCN1CCC(c2cn(-c3ccc(F)cc3)c3ccc(Cl)cc23)CC1` [SERTINDOLE], the IC50 was 82.7 µM on Bile salt export pump, greater than 133 µM in assay [1], greater than 133 µM in assay [2] and greater than 133 µM in assay [3].

Consider `N[C@@H](CC(=O)N1CCn2c(nnc2C(F)(F)F)C1)Cc1cc(F)c(F)cc1F` [SITAGLIPTIN], for which the IC50 (on Bile salt export pump; in assay [1]; in assay [2]; in assay [3]) was greater than 133 µM each time.

As to `CC(C)NCC(O)c1ccc(NS(C)(=O)=O)cc1` (centres undefined) [SOTALOL], the 50% inhibitory concentration (IC50) (at Bile salt export pump; in assay [1]; in assay [2]; in assay [3]) was greater than 133 µM in each case.

`C[C@@H]1CN(c2c(F)c(N)c3c(=O)c(C(=O)O)cn(C4CC4)c3c2F)C[C@H](C)N1` [SPARFLOXACIN]: the IC50 (on Bile salt export pump; in assay [1]; in assay [2]; in assay [3]) was greater than 133 µM in each case.

For the compound `Cc1cn([C@H]2C=C[C@@H](CO)O2)c(=O)[nH]c1=O` [STAVUDINE], the IC50 (at Bile salt export pump; in assay [1]; in assay [2]; in assay [3]) was greater than 133 µM in each case.

As to `CC(SC(=O)c1cccs1)C(=O)NCC(=O)O` (centres undefined) [STEPRONIN], the IC50 (at Bile salt export pump; in assay [1]; in assay [2]; in assay [3]) was greater than 133 µM each time.

For the compound `CC1(C)[C@H](C(=O)O)N2C(=O)C[C@H]2S1(=O)=O` [SULBACTAM], the IC50 (on Bile salt export pump; in assay [1]; in assay [2]; in assay [3]) was greater than 133 µM in each case.

For the compound `Nc1ccc(S(=O)(=O)Nc2ncccn2)cc1` [SULFADIAZINE], the IC50 (at Bile salt export pump; in assay [1]; in assay [2]; in assay [3]) was greater than 133 µM throughout.

One may read the IC50 as the concentration that inhibits the measured activity by half.
